Results on 16 compounds are retold here after patent publication US11866431B2, “Bicyclic compounds” (Vivace Therapeutics, Inc., priority 2018, dated 2024).

pIC50: −log10 of the molar value. Some results are limits rather than exact numbers.

For this assay, the system named is 8XTBD luciferase reporter (YAP reporter) in HEK293T cells. In words: YAP Reporter Assay. The assay is classed as cell-based. The following applies: Homo sapiens, HEK-293T; HEK293T cells stably transfected with 8XTBD luciferase reporter and pRLTK; 24-hr incubation; top concentration 3 μM; read-out: Firefly Luciferase IC50. In outline: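 HEK293T cells stably carrying 8XTBD firefly luciferase and TK-renilla (3×10^3 cells/well) dosed 3-4 h after plating with compounds from 3 μM final, 1:3 dilution, 10 points, quadruplicates. After 24 h at 37° C, Dual-Glo readings gave IC50 and maximum inhibition reported separately for firefly and renilla.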
Regarding `CC(C)NC(=O)c1ccc2c(-c3ccc(C(F)(F)F)cc3)ccc(C3CC3)c2c1` [Compound 22, 8-cyclopropyl-N-isopropyl-5-(4-(trifluoromethyl)phenyl)-2-naphthamide], the negative-log IC50 (pIC50) was above 7.00.
Then `O=C(NC1(c2ccccn2)CC1)c1ccc2c(-c3ccc(C(F)(F)F)cc3)cccc2c1` [Compound 250, N-(1-(pyridin-2-yl)cyclopropyl)-5-(4-(trifluoromethyl)phenyl)-2-naphthamide], with 6.00 to 7.00; and `O=C(O)c1cnc2c(-c3ccc(C(F)(F)F)cc3)cc(F)c(F)c2c1` [Compound 328, 5,6-difluoro-8-(4-(trifluoromethyl)phenyl)quinoline-3-carboxylic Acid], with above 7.00.
As for `CC(C)NC(=O)c1ccc2c(-c3ccc(C(F)(F)F)cc3)ccc(C(F)(F)F)c2c1` [Compound 87, N-isopropyl-8-(trifluoromethyl)-5-(4-(trifluoromethyl)phenyl)-2-naphthamide], the figure is 6.00 to 7.00; as for `O=C(O)c1ccc2c(-c3ccc(S(F)(F)(F)(F)F)cc3)cccc2c1` [Compound 329, 5-[4-(pentafluoro-sulfanyl)phenyl]naphthalene-2-carboxylic Acid], above 7.00; as for `C#Cc1cc(-c2ccc(C(F)(F)F)cc2)c2ccc(C(=O)NC(C)C)cc2c1` [Compound 38, 7-ethynyl-N-isopropyl-5-(4-(trifluoromethyl)phenyl)-2-naphthamide], above 7.00.
Then `CC(=O)N(C)c1ccc(-c2ccc(C(F)(F)F)cc2)c2ccc(C(=O)NC(C)C)cc12` [Compound 30, N-isopropyl-8-(N-methylacetamido)-5-(4-(trifluoromethyl)phenyl)-2-naphthamide], with 6.00 to 7.00.
Regarding `CC(C)NC(=O)c1ccc2c(-c3ccc(C(F)(F)F)cc3)cncc2c1` [Compound 25, N-isopropyl-4-[4-(trifluoromethyl)phenyl]isoquinoline-7-carboxamide], the pIC50 is 6.00 to 7.00.
As for `CC(C)NC(=O)c1ccc2c(-c3ccc(C(F)(F)F)cc3)cccc2c1` [Compound 1, N-isopropyl-5-(4-(trifluoromethyl)phenyl)-2-naphthamide], the figure is above 7.00; as for `CC(NC(=O)c1ccc2c(-c3ccc(C(F)(F)F)cc3)cccc2c1)c1nsc(C(N)=O)n1` (stereo not shown) [Compound 201, 3-(1-(5-(4-(Trifluoromethyl)phenyl)-2-naphthamido)ethyl)-1,2,4-thiadiazole-5-carboxamide], above 7.00.
As for `CC(=O)N1CC([C@H](C)NC(=O)c2ccc3c(-c4ccc(C(F)(F)F)cc4)cccc3c2)C1` [Compound 200, (S)—N-(1-(1-acetylazetidin-3-yl)ethyl)-5-(4-(trifluoromethyl)phenyl)-2-naphthamide], the figure is 6.00 to 7.00; as for `O=C(NC(CO)c1ccccn1)c1ccc2c(-c3ccc(C(F)(F)F)cc3)cccc2c1` (stereo not shown) [Compound 110, N-(2-hydroxy-1-(pyridin-2-yl)ethyl)-5-(4-(trifluoromethyl)phenyl)-2-naphthamide], above 7.00.
As for `O=C(NC1(c2ccccc2)CC1)c1ccc2c(-c3ccc(C(F)(F)F)cc3)cccc2c1` [Compound 121, N-(1-phenylcyclopropyl)-5-[4-(trifluoromethyl)phenyl]naphthalene-2-carboxamide], the figure is above 7.00; as for `COc1cc(-c2ccc(C(F)(F)F)cc2F)c2ncc(C(=O)O)cc2c1` [Compound 321, 8-(2-fluoro-4-(trifluoromethyl)phenyl)-6-methoxyquinoline-3-carboxylic Acid], above 7.00; as for `CC(C)NC(=O)c1ccc2c(-c3ccc(C(F)(F)F)cc3)ccc(I)c2c1` [Compound 88, 8-iodo-N-isopropyl-5-(4-(trifluoromethyl)phenyl)-2-naphthamide], 6.00 to 7.00.
With `COC(=O)c1ccc2c(-c3ccc(C(F)(F)F)cc3)cnc(O)c2c1` [Compound 14, Methyl 1-oxo-4-[4-(trifluoromethyl)phenyl]-2H-isoquinoline-7-carboxylate], the negative logarithm of the IC50 (pIC50) is above 7.00.
